Like-named read-outs stand apart in the source and are kept apart here.
Assays:
Assay in all cases: Ras GTP binding domain inhibition assay (Cy3-GTP/Cy5-GTP competition)
KRas G12C mutant = test system: KRas G12C mutant; parameters: species or system human; details: 20 μM
Procedure: (§1) The following method was developed as specific assay for the following proteins: KRas wild type, KRas Q61H mutant, KRas G12C mutant, KRas G12D mutant, HRas wild type, Rac-1, and Rho-A.
(§2) • 25 mM Tris-HCl, pH 7.4 • 27 mM KCl • 137 mM NaCl • 1 mM MgCl2 • 1 mM DTT
(§3) • 50 mM Tris-HCl, pH 7.0 • 1 mM MgCl2 • 1 mM DTT
(§4) The small GTPases proteins: KRas wild type. KRas Q61H mutant, KRas G12C mutant, KRas G12D mutants, HRas wild type, Rac-1, and Rho-A were expressed as His-tagged proteins. In addition, the Guanosine nucleotide Exchange Factor (GEF) Sos protein (residues 556-1049) was expressed as a His-tagged protein. In cells, the guanine nucleotide exchange factor Sos protein promotes activation of Ras proteins by stimulating an exchange of GDP for GTP. The inclusion of Sos to the Ras GTP binding domain inhibition assay may be considered as an alternative representation of physiological cellular conditions for evaluating the inhibitory activity of some of the tested small molecules.
(§5) For the assay, all purified small GTPases proteins were diluted in Buffer-I or Buffer-II to a final concentration of 10-30 μg/mL. 200 μL of each diluted protein was added to a nickel-coated 96-well plate and incubated overnight at 4° C. Then the protein solution was discarded and 200 μL of Buffer-I or Buffer-II was added to each well in the presence of 1% DMSO. Compounds to be tested were added to the protein-coated wells at final concentration of 20 μM, and incubated for 3 hours at room temperature with and without […] of Sos added to the final hour of the incubation. When performing IC50 measurements a serial dilution of all tested concentrations was added. Then Cy3-GTP or Cy5-GTP was added to each well to a final concentration of 100 nM. The labeled GTP was incubated for 45 minutes at room temperature. Following GTP incubation, wells were washed 3× in Buffer-I or Buffer-II and 200 μL of Buffer-I or Buffer-II was added to each well. Following washes, the amount of bound labeled-GTP was measured using a SpectraMax M3 (Molecular Devices).

KRas Q61H mutant = test system: KRas Q61H mutant; parameters: species or system human; details: 20 μM
Procedure: as §1, §2, §3, §4, §5

KRas wild type = test system: KRas wild type; parameters: species or system human; details: 20 μM; for KRas wild type: % inh.: without SOS
Procedure: as §1, §2, §3, §4, §5

KRas G12D mutant = biological target: T1, KRas G12D mutant (Homo sapiens, UniProt P01116, G12D); details: 20 μM
T1 construct: fused on or other part: His tag, used for capture on nickel-coated plates
Procedure: as §1, §2, §3, §4, §5

[1] = with SOS, read-out: KRas G-12D mutant + SOS: % inh.
[2] = without SOS, read-out: KRas G12D mutant: % inh.

SMILES: Cc1cc(Cn2ccnc2-c2nc(O)c3scc(-c4ccccn4)c3n2)on1 [drawing 846]
- KRas G12C mutant + SOS: % inh. (KRas G12C mutant; with SOS): C (51-75% inhibition)
- KRas G12C mutant: % inh. (KRas G12C mutant; without SOS): B (26-50% inhibition)
- KRas Q61H mutant + SOS: % inh. (KRas Q61H mutant; with SOS): C (51-75% inhibition)
- KRas Q61H mutant: % inh. (KRas Q61H mutant; without SOS): B (26-50% inhibition)
- KRas wild type + SOS: % inh. (KRas wild type; with SOS): B (26-50% inhibition)
- KRas wild type: % inh. (KRas wild type): C (51-75% inhibition)
- inhibition at 20 µM (KRas G12D mutant; [1]): 26 to 50%
- inhibition at 20 µM (KRas G12D mutant; [2]): 51 to 75%

SMILES: COC1CCN(c2nc(-c3nccn3C)nc3sc(-c4cccc(O)c4F)c(-c4ccccc4)c23)C1 (centres unmarked) [drawing 890]
- KRas G12C mutant + SOS: % inh. (KRas G12C mutant; with SOS (Table 7A)): C (51-75% inhibition)
- KRas G12C mutant: % inh. (KRas G12C mutant; without SOS (Table 7A)): A (1-25% inhibition)
- KRas Q61H mutant + SOS: % inh. (KRas Q61H mutant; with SOS (Table 7A)): C (51-75% inhibition)
- KRas Q61H mutant: % inh. (KRas Q61H mutant; without SOS (Table 7A)): B (26-50% inhibition)
- KRas wild type + SOS: % inh. (KRas wild type; with SOS (Table 7A)): C (51-75% inhibition)
- KRas wild type % inh. (KRas wild type; without SOS (Table 7A)): B (26-50% inhibition)
- inhibition at 20 µM (KRas G12D mutant; with SOS (Table 7A), read-out: KRas G12D mutant + SOS: % inh.): 51 to 75%
- inhibition at 20 µM (KRas G12D mutant; without SOS (Table 7A), read-out: KRas G12D mutant: % inh.): 1 to 25%

SMILES: COCC1CN(c2nc(-c3nccn3C)nc3sc(-c4cccc(OC)c4F)c(-c4ccc(OC)cc4)c23)C1 [drawing 805]
- KRas G12C mutant + SOS: % inh. (KRas G12C mutant; with SOS): D (76-100% inhibition)
- KRas G12C mutant: % inh. (KRas G12C mutant; without SOS): B (26-50% inhibition)
- KRas Q61H mutant + SOS: % inh. (KRas Q61H mutant; with SOS): D (76-100% inhibition)
- KRas Q61H mutant: % inh. (KRas Q61H mutant; without SOS): D (76-100% inhibition)
- KRas wild type + SOS: % inh. (KRas wild type; with SOS): D (76-100% inhibition)
- KRas wild type: % inh. (KRas wild type): C (51-75% inhibition)
- inhibition at 20 µM (KRas G12D mutant; [1]): 51 to 75%
- inhibition at 20 µM (KRas G12D mutant; [2]): 51 to 75%

SMILES: COCCNc1nc(-c2nccn2C)nc2sc(-c3cccc(OC)c3Cl)c(-c3ccc(OC)cc3)c12 [drawing 874]
- KRas G12C mutant + SOS: % inh. (KRas G12C mutant; with SOS): D (76-100% inhibition)
- KRas G12C mutant: % inh. (KRas G12C mutant; without SOS): B (26-50% inhibition)
- KRas Q61H mutant + SOS: % inh. (KRas Q61H mutant; with SOS): D (76-100% inhibition)
- KRas Q61H mutant: % inh. (KRas Q61H mutant; without SOS): A (1-25% inhibition)
- KRas wild type + SOS: % inh. (KRas wild type; with SOS): D (76-100% inhibition)
- KRas wild type: % inh. (KRas wild type): B (26-50% inhibition)
- inhibition at 20 µM (KRas G12D mutant; [1]): 51 to 75%
- inhibition at 20 µM (KRas G12D mutant; [2]): 1 to 25%

SMILES: CO[C@H]1CCC(Nc2nc(-c3nccn3C)nc3sc(-c4ccn(C)n4)c(-c4ccccc4)c23)C1 (some centres unmarked) [drawing 860]
- KRas G12C mutant + SOS: % inh. (KRas G12C mutant; with SOS): D (76-100% inhibition)
- KRas G12C mutant: % inh. (KRas G12C mutant; without SOS): B (26-50% inhibition)
- KRas Q61H mutant + SOS: % inh. (KRas Q61H mutant; with SOS): D (76-100% inhibition)
- KRas Q61H mutant: % inh. (KRas Q61H mutant; without SOS): B (26-50% inhibition)
- KRas wild type + SOS: % inh. (KRas wild type; with SOS): D (76-100% inhibition)
- KRas wild type: % inh. (KRas wild type): B (26-50% inhibition)
- inhibition at 20 µM (KRas G12D mutant; [1]): 51 to 75%
- inhibition at 20 µM (KRas G12D mutant; [2]): 26 to 50%

SMILES: COC1CCN(c2nc(-c3nccn3C)nc3sc(-c4cnc(C5CC5)o4)c(-c4ccccc4)c23)C1.Cl (centres unmarked)
- KRas G12C mutant + SOS: % inh. (KRas G12C mutant; with SOS): C (51-75% inhibition)
- KRas G12C mutant: % inh. (KRas G12C mutant; without SOS): C (51-75% inhibition)
- KRas Q61H mutant + SOS: % inh. (KRas Q61H mutant; with SOS): C (51-75% inhibition)
- KRas Q61H mutant: % inh. (KRas Q61H mutant; without SOS): B (26-50% inhibition)
- KRas wild type + SOS: % inh. (KRas wild type; with SOS): C (51-75% inhibition)
- KRas wild type: % inh. (KRas wild type): C (51-75% inhibition)
- inhibition at 20 µM (KRas G12D mutant; [1]): 51 to 75%
- inhibition at 20 µM (KRas G12D mutant; [2]): 51 to 75%

SMILES: COC1CCN(c2nc(-c3nccn3C)nc3sc(-c4ccc(N)nc4C)c(-c4ccccc4)c23)C1.Cl (centres unmarked)
- KRas G12C mutant + SOS: % inh. (KRas G12C mutant; with SOS): A (1-25% inhibition)
- KRas G12C mutant: % inh. (KRas G12C mutant; without SOS): A (1-25% inhibition)
- KRas Q61H mutant + SOS: % inh. (KRas Q61H mutant; with SOS): A (1-25% inhibition)
- KRas Q61H mutant: % inh. (KRas Q61H mutant; without SOS): A (1-25% inhibition)
- KRas wild type + SOS: % inh. (KRas wild type; with SOS): A (1-25% inhibition)
- KRas wild type: % inh. (KRas wild type): A (1-25% inhibition)
- inhibition at 20 µM (KRas G12D mutant; [1]): 1 to 25%
- inhibition at 20 µM (KRas G12D mutant; [2]): 1 to 25%

Source: patent publication US20250296938A1, “Compounds that Interact with the Ras Superfamily for the Treatment of Cancers, Inflammatory Diseases, Rasopathies, and Fibrotic Disease” (SHY Therapeutics, LLC, priority 2018, published 2025)
